Measurements published in patent US20250099420A1, “SMALL MOLECULE MODULATORS OF GPR139 COMPLEX” (University of Florida Research Foundation, Incorporated, priority 2022, published 2025).
Read-outs that look alike come from different tables or passages of the source.

Assays:
[1] = tested on: parental HEK cells; experiment: HEK parental Agonist Counterscreen Assay (non-transfected cells); type: cell-based; conditions: for Averaged Max % Response (±St. Dev.): activity relative to known control
Description: The high control for the agonist counterscreen was Forskolin not acetylcholine.

[2] = target: T1, GPR139 (Homo sapiens, UniProt Q6DWJ6); experiment: GPR139 Agonist titration / agonist counterscreen assay (calcium detection, HEK-GPR139 cells); type: cell-based; set-up: expressed in transfected cells; host or cells: HEK Aequorin cells, Maxcyte transient transfection; conditions: GPR139 Agonist Activity; for EC50: read-out: EC50; for Averaged Max % Response (±St. Dev.): activity relative to known control
T1 sequence (Q6DWJ6 1-353): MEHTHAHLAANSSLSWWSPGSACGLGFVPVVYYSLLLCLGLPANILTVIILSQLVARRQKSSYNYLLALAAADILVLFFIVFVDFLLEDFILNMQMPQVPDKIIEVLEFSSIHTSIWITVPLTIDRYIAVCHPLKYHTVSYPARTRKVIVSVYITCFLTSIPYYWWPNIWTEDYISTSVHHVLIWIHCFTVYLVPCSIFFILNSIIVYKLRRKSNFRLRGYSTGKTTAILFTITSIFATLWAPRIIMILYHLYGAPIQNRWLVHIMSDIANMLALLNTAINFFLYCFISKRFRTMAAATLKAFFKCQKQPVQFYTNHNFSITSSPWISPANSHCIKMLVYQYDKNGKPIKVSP
Procedure: GPR activity was assessed using a calcium detection assay. […] Negative control samples were treated with DMSO. […] Intracellular calcium was measured using Calcium 5.

[3] = HEK Agonist Activity section of Table 4 (parental HEK counterscreen)
[4] = values printed in E-notation without unit
[5] = Homo sapiens, HEK293, HEK Agonist Activity, parental non-transfected HEK cells
[6] = Homo sapiens, HEK293, HEK Agonist Activity section of Table 4 (parental HEK counterscreen)

| SMILES | Lipophilic Efficiency (logD) ([1]; HEK Agonist Activity section) | Lipophilic Efficiency (logP) ([1]; HEK Agonist Activity section) | Efficiency Ligand [2] | Hill Slope [2] | Lipophilic Efficiency (logD) [2] | Lipophilic Efficiency (logP) [2] | EC50 ([2]; HEK-GPR139 cells) [nM] | Averaged Max % Response (±St. Dev.) [2] [%] | Lipophilic Efficiency (logD) ([2]; based on logD) | Lipophilic Efficiency (logP) ([2]; based on logP) | Hill Slope ([2]; fitted dose-response curve) | Efficiency Ligand ([2]; ligand efficiency) | EC50 [2, 4] [nM] | Lipophilic Efficiency (logD) ([1]; HEK Agonist Activity) | Lipophilic Efficiency (logP) ([1]; HEK Agonist Activity) | EC50 [1, 3] [nM] | Averaged Max % Response (±St. Dev.) ([1]; HEK Agonist Activity section) [%] | Averaged Max % Response (±St. Dev.) ([1]; HEK Agonist Activity) [%] | EC50 [1, 5] [nM] | EC50 [1, 6] [nM] |
| --- | --- | --- | --- | --- | --- | --- | --- | --- | --- | --- | --- | --- | --- | --- | --- | --- | --- | --- | --- | --- |
| Cc1[nH]ncc1-c1ccc(NC(=O)C2COc3ccc(F)cc3C2)c(OCCN2CCOCC2)c1.O=C(O)C(F)(F)F.O=C(O)C(F)(F)F (stereo not shown) [SR-00000005393] | 1.92 | 1.87 | 0.25 | 0.94 | 3.27 | 3.22 | 629 | 87.23 ± 6.46 | – | – | – | – | – | – | – | > 14100 | 10.82 ± 8.56 | – | – | – |
| CN(C(=O)CN1C(=O)NC(C)(c2ccc3ccccc3c2)C1=O)C1CCCCC1 (stereo not shown) [SR-01000048373] | 1.79 | 1.79 | – | – | – | – | – | 118.34 ± 15.06 | 3.96 | 3.96 | 0.66 | 0.34 | 96.7 | – | – | > 14300 | 9.79 ± 7.30 | – | – | – |
| O=C(CCC(=O)c1ccco1)NNC(=O)CN1CCCc2ccccc21 [SR-01000068721] | – | – | – | – | – | – | – | 109.68 ± 5.18 | 5.32 | 5.32 | 0.71 | 0.40 | 34.7 | 2.68 | 2.68 | – | – | 8.82 ± 10.34 | > 15200 | – |
| O=C(CCCOc1ccc(Cl)cc1Cl)NNC(=O)Cc1ccc2c(c1)OCCO2 [SR-01000065653] | 1.88 | 1.87 | – | – | – | – | – | 89.15 ± 7.00 | 4.06 | 4.05 | 1.10 | 0.34 | 94.4 | – | – | > 14100 | −8.07 ± 6.14 | – | – | – |
| C=C(CCc1cccc(CC)c1)C(C)C1CCC(Cc2ccccc2C)C1=C (stereo not shown) [SR-01000095280] | – | – | – | – | – | – | – | 122.65 ± 11.25 | 6.68 | 6.68 | – | 0.41 | – | 2.38 | 2.38 | – | – | 25.01 ± 8.12 | > 14100 | – |
| O=C(CN1C(=O)NC2(CCc3ccccc32)C1=O)Nc1cccc(Cl)c1 (stereo not shown) [SR-01000069699] | 2.03 | 2.03 | – | – | – | – | – | 116.05 ± 3.28 | 4.18 | 4.18 | 0.54 | 0.38 | 108 | – | – | – | 12.32 ± 5.16 | – | – | > 15200 |
| COc1ccc(NC(=O)Cn2ncc3c2-c2ccccc2OC3)cc1Cl [SR-01000135070] | 1.93 | 1.93 | – | – | – | – | – | 89.37 ± 8.48 | 4.16 | 4.16 | 0.51 | 0.38 | 82.9 | – | – | > 14100 | 7.87 ± 13.27 | – | – | – |
| N[C@H](Cc1ccccc1Cl)c1nc2ccc(-c3ccncc3)cc2[nH]1.O=C(O)C(F)(F)F.O=C(O)C(F)(F)F [SR-00000003277] | 2.04 | 1.13 | 0.34 | 1.48 | 3.23 | 2.32 | 928 | 97.54 ± 11.30 | – | – | – | – | – | – | – | > 14100 | 29.67 ± 5.05 | – | – | – |

Further lines, with some results ahead:

| Lipophilic Efficiency (logD) ([1]; HEK Agonist Activity section) | Lipophilic Efficiency (logP) ([1]; HEK Agonist Activity section) | Efficiency Ligand [2] | Hill Slope [2] | Lipophilic Efficiency (logD) [2] | Lipophilic Efficiency (logP) [2] | EC50 ([2]; HEK-GPR139 cells) [nM] | Averaged Max % Response (±St. Dev.) [2] [%] | Lipophilic Efficiency (logD) ([2]; based on logD) | Lipophilic Efficiency (logP) ([2]; based on logP) | Hill Slope ([2]; fitted dose-response curve) | Efficiency Ligand ([2]; ligand efficiency) | EC50 [2, 4] [nM] | Lipophilic Efficiency (logD) ([1]; HEK Agonist Activity) | Lipophilic Efficiency (logP) ([1]; HEK Agonist Activity) | SMILES | EC50 [1, 3] [nM] | Averaged Max % Response (±St. Dev.) ([1]; HEK Agonist Activity section) [%] | Averaged Max % Response (±St. Dev.) ([1]; HEK Agonist Activity) [%] | EC50 [1, 5] [nM] | EC50 [1, 6] [nM] |
| --- | --- | --- | --- | --- | --- | --- | --- | --- | --- | --- | --- | --- | --- | --- | --- | --- | --- | --- | --- | --- |
| 1.72 | 1.72 | 0.31 | 0.56 | 2.47 | 2.47 | 2500 | 78.44 ± 11.98 | – | – | – | – | – | – | – | Cc1ccc2c(c1)-c1c(cnn1CC(=O)Nc1ccc(F)cc1)CO2 [SR-01000136273] | > 14100 | −14.31 ± 5.07 | – | – | – |
| −0.052 | −0.052 | – | – | – | – | – | 103.05 ± 12.22 | 1.92 | 1.92 | 0.41 | 0.23 | 145 | – | – | CSc1cccc(NC(=O)C2C3C=CC4(O3)C2C(=O)N(C(C)c2ccccc2)C4C(=O)NC2CCCC(C)C2C)c1 (stereo not shown) [SR-01000545824] | > 13600 | −0.19 ± 3.69 | – | – | – |
| – | – | – | – | – | – | – | 100.19 ± 16.30 | 5.01 | 4.07 | 1.02 | 0.46 | 33.5 | 2.39 | 1.45 | Cc1ccc(S(=O)(=O)NC(=O)NC(C)Cc2ccccc2)cc1 (stereo not shown) [SR-01000362293] | – | – | −7.08 ± 3.92 | > 14100 | – |
| – | – | – | – | – | – | – | 97.36 ± 11.63 | 4.40 | 4.36 | 0.75 | 0.38 | 23.9 | 1.62 | 1.58 | COc1ccc(OC)c(NC(=O)NNC(=O)C(C)Oc2ccc(Cl)cc2Cl)c1 (stereo not shown) [SR-01000276878] | – | – | 6.40 ± 8.50 | > 14100 | – |
| 1.40 | 1.39 | 0.36 | 1.19 | 2.69 | 2.69 | 719 | 90.41 ± 15.26 | – | – | – | – | – | – | – | Cc1ccc(CCC(=O)NNC(=O)CCc2ccccc2)c(Br)c1 [SR-01000313193] | – | 8.61 ± 6.03 | – | – | > 14100 |
| 1.86 | 1.41 | 0.36 | 0.68 | 3.43 | 2.99 | 373 | 91.29 ± 4.98 | – | – | – | – | – | – | – | O=C1CCCCN1c1cccc(NS(=O)(=O)c2cc(Cl)ccc2Cl)c1 [SR-01000916375] | – | −1.52 ± 2.20 | – | – | > 14100 |
| 2.52 | 2.48 | 0.46 | 1.19 | 3.90 | 3.86 | 580 | 86.53 ± 11.45 | – | – | – | – | – | – | – | CCC(=O)NNC(=O)C(C)Oc1ccc(Cl)cc1Cl (stereo not shown) [SR-01000316982] | – | 2.44 ± 4.96 | – | – | > 14100 |
| 1.55 | 1.55 | 0.24 | 1.97 | 2.46 | 2.46 | – | 80.99 ± 4.70 | – | – | – | – | – | – | – | CCc1c(C2C(C(=O)OCc3ccccc3)=C(C)CC3=C2C(=O)CCC3)ccc(OC)c1OC (stereo not shown) [SR-01000406098] | – | 7.56 ± 6.15 | – | – | > 11500 |
